From PubChem BioAssay AID488795 (NMMLSC, 2010)
The source made the active and inactive calls. No rule for the calls is given here.

Target: Vacuolar aminopeptidase 1 (Saccharomyces cerevisiae (strain ATCC 204508 / S288c)) (UniProt P14904)
Test: yeast TOR reporter LAP4 modulators, analogs – cell-based, KU SAR set, flow cytometry, SAR follow-up (AID 488795)
Conditions: S. cerevisiae Lap4-GFP reporter, flow cytometry MCF

Vacuolar aminopeptidase 1 (Saccharomyces cerevisiae (strain ATCC 204508 / S288c)), sequence (P14904 whole entry, looked up): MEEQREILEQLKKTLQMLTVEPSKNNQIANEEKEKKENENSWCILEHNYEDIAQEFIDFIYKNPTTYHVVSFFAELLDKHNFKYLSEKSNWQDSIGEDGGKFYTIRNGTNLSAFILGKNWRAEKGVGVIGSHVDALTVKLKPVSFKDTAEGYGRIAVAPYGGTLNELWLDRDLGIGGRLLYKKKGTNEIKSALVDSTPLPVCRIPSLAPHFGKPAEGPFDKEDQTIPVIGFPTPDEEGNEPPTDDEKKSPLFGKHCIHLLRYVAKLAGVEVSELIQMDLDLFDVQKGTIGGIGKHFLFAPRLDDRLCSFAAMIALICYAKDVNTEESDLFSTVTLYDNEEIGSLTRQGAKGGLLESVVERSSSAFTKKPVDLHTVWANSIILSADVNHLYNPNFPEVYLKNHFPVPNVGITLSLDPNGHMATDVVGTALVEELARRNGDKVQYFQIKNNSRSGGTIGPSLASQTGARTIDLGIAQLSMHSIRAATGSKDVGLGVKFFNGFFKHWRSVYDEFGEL

| SMILES | EC50 |
| --- | --- |
| CCCCC(=O)NNC(=S)NC(=O)c1ccc(C)cc1 | 4.05 µM |
| CCOC(=O)CCS(=O)(=O)c1nc(-c2ccccc2)cc(C(F)(F)F)n1 | 27.6 µM |
| CCC(C)Nc1nc(N)c([N+](=O)[O-])c(Nc2cccc(F)c2)n1 (centres undefined) | inactive |
| O=C(OCn1ncc(Br)c(Br)c1=O)c1ccc(F)cc1 | 4.01 µM |
| O=S(=O)(CCN(CCS(=O)(=O)C(F)(F)F)CC1CCCO1)C(F)(F)F (centres undefined) | 12.5 µM |
| Nc1cc(Oc2cccc(Cl)c2)nc(NCc2ccccc2)n1 | inactive |
| Cc1ccc(S(=O)(=O)c2ccc([N+](=O)[O-])cn2)cc1 | 2.55 µM |
| COc1ccc([N+](=O)[O-])c(S(=O)(=O)c2ccc(Cl)cc2)n1 | 3.53 µM |
| CSC1=NS(=O)(=O)c2c(C)nn(C)c2S1 | inactive |
| CCOC(=O)CS(=O)(=O)c1nc(-c2ccccc2)cc(C(F)(F)F)n1 | 6.32 µM |
| CCOC(=O)CSC1=NC(=O)/C(=C\c2ccc(Cl)cc2)S1 | inactive |
| O=[N+]([O-])c1cc(S(=O)(=O)C(F)(F)F)ccc1Sc1nc2ccccc2s1 | 14 µM |
| CC(C)(C)C(=O)C(Cl)C(=O)Nc1ccccc1 (centres undefined) | 6.93 µM |
| Nc1cc(Nc2cccc(F)c2)nc(NCc2ccccc2)n1 | inactive |
| Clc1ccc(N=c2ssnc2Cl)cc1 | 3.73 µM |
| CCCOc1ccc(C(=O)NNC(=S)NC(=O)CC)cc1 | 4.38 µM |
| Oc1c(I)cc(I)c2cccnc12 | inactive |
| Cc1ccc2nc(Cl)c3nnnn3c2c1 | 4.47 µM |
| CNc1nc(N)c([N+](=O)[O-])c(Nc2cccc(F)c2)n1 | 8.37 µM |
| O=C(OCn1ncc(Br)c(Br)c1=O)c1c(F)cccc1F | 4.33 µM |

The remaining lines, values ahead:

| EC50 | SMILES |
| --- | --- |
| inactive | CCSc1nnc(NC(=O)c2ccccn2)s1 |
| inactive | C/C(=N\NC(=O)c1cccc(Br)c1)c1ccccn1 |
| 1.22 µM | O=c1cc(CSc2ccc(Cl)cc2)nc(-c2ccccn2)[nH]1 |
| 4.36 µM | O=c1/c(=C/c2cccc3ccccc23)sc2ncnn12 |
| inactive | C/C(=N\NC(=O)c1ccc(C(C)(C)C)cc1)c1ccccn1 |
| inactive | CCN(CC)C(=O)Oc1ccnc2cc(Cl)ccc12 |
| 11.9 µM | COc1ccc([N+](=O)[O-])c(S(=O)(=O)c2ccccc2)n1 |
| inactive | CN1CCN(C(=O)c2cc(COc3c(F)cccc3F)on2)CC1c1ccccc1 (centres undefined) |
| inactive | O=C(Nc1nc(-c2ccccn2)cs1)C1COc2ccccc2O1 (centres undefined) |
| 19.9 µM | COC(=O)CCS(=O)(=O)c1nc(-c2ccccc2)cc(C(F)(F)F)n1 |
| 1.94 µM | O=[N+]([O-])c1ccc(S(=O)(=O)c2cccc(C(F)(F)F)c2)nc1 |
| 6.57 µM | O=[N+]([O-])c1ccc(O)c2ncccc12 |
| 3.42 µM | O=C(CCc1ccccc1)NNC(=S)NC(=O)c1ccccc1 |
| inactive | Cc1ccc(S(=O)(=O)c2ncccc2[N+](=O)[O-])cc1 |
